PubChem BioAssay AID1259408 (Genetic Toxicology Data Bank (GENE-TOX), 2018)
Active and inactive are the calls of the source. How the calls were made is not given here.

Tested on: GENE-TOX genotoxicity assays, various organisms and cells
Test: GENE-TOX mutagenicity studies
Conditions: for call: Assay Type: In vivo carcinogenicity studies
[1] = Species/Cell Type: Saccharomyces cerevisiae, Assay Type: Reverse gene mutation, Assay Code: YER+, Evaluation Type: Evaluation A (Pre-1980)
[2] = Species/Cell Type: Salmonella typhimurium (one or more of the five standard strains: TA98, TA100, TA1535, TA1537, and TA1538), Assay Type: Histidine reverse gene mutation, Ames assay, Assay Code: SAL+, Evaluation Type: Evaluation A (Pre-1980)
[3] = Species/Cell Type: Syrian hamster embryo (SA7/SHE) cells, Assay Type: Cell transformation, viral enhanced, Assay Code: CT7+, Evaluation Type: Evaluation A (Pre-1980)
[4] = Species/Cell Type: Vicia faba, Assay Type: Chromosome aberrations, Assay Code: VIC+, Evaluation Type: Evaluation A (Pre-1980)
[5] = Species/Cell Type: Human, Assay Type: Sister-chromatid exchange (SCE) in vitro, Assay Code: SC1+D, Dose Response: With dose response, Evaluation Type: Evaluation B (Post-1980)
[6] = Species/Cell Type: Drosophila melanogaster, Assay Type: Sex-linked recessive lethal gene mutation, Assay Code: SRL-, Evaluation Type: Evaluation A (Pre-1980)
[7] = Species/Cell Type: Escherichia coli polA (W3119 vs P3478), Assay Type: Rec-assay, DNA effects (bacterial DNA repair), Assay Code: RE1T, Evaluation Type: Evaluation A (Pre-1980)
[8] = Species/Cell Type: Human diploid fibroblasts, Assay Type: Unscheduled DNA synthesis (UDS) in vitro, DNA effects, Assay Code: UDH-, Evaluation Type: Evaluation A (Pre-1980)

For `O=C1CCO1`, the mutagenic call (Species/Cell Type: Allium cepa, Assay Type: Chromosome aberrations, Assay Code: ALC+, Evaluation Type: Evaluation A (Pre-1980)) was “active; positive”, the mutagenic call (Species/Cell Type: Chinese hamster ovary (CHO) cells, Assay Type: Forward gene mutation at the HPRT locus, Assay Code: CHO+, Evaluation Type: Evaluation B (Post-1980)) was “active; positive” and the mutagenic call (Species/Cell Type: Drosophila melanogaster, Assay Type: Sex-linked recessive lethal gene mutation, Assay Code: SRL+, Evaluation Type: Evaluation A (Pre-1980)) was “active; positive”. The mutagenic call (Species/Cell Type: Drosophila melanogaster, Sex: Male, Assay Type: Heritable translocation test, chromosome aberrations, Assay Code: DHT+, Evaluation Type: Evaluation A (Pre-1980)) was “active; positive”, the mutagenic call (Species/Cell Type: Escherichia coli polA (W3119 vs P3478), Assay Type: Rec-assay, DNA effects (bacterial DNA repair), Assay Code: RE1+, Evaluation Type: Evaluation A (Pre-1980)) was “active; positive” and the mutagenic call (Species/Cell Type: Human diploid fibroblasts, Assay Type: Unscheduled DNA synthesis (UDS) in vitro, DNA effects, Assay Code: UDH+, Evaluation Type: Evaluation A (Pre-1980)) was “active; positive”. For the same molecule, the mutagenic call (Species/Cell Type: Mammalian polychromatic erythrocytes, Assay Type: Micronucleus test, chromosome aberrations, Assay Code: MNTT, Evaluation Type: Evaluation A (Pre-1980)) was “no conclusion”, the mutagenic call (Species/Cell Type: Mouse lymphoma (L5178Y) cells, Assay Type: Forward gene mutation at the thymidine kinase (TK) locus, chromosome aberrations, Assay Code: L51+, Evaluation Type: Evaluation A (Pre-1980)) was “active; positive” and the mutagenic call (Species/Cell Type: Mouse, Sex: Male, Assay Type: Sperm morphology, Assay Code: SPI-, Evaluation Type: Evaluation A (Pre-1980)) was “inactive; negative”. The mutagenic call (Species/Cell Type: Neurospora crassa, Assay Type: Forward gene mutation, Assay Code: NEF+, Evaluation Type: Evaluation A (Pre-1980)) was “active; positive”, the mutagenic call (Species/Cell Type: Neurospora crassa, Assay Type: Reverse gene mutation, Assay Code: NER+, Evaluation Type: Evaluation A (Pre-1980)) was “active; positive” and the call (Species/Cell Type: Nonhuman, Assay Code: CCG+, Evaluation Type: Evaluation A (Pre-1980)) was “active; positive”. The mutagenic call (Species/Cell Type: Nonhuman, Assay Type: Sister-chromatid exchange (SCE) in vitro, Assay Code: SC2+D, Dose Response: With dose response, Evaluation Type: Evaluation A (Pre-1980)) was “active; positive”, the mutagenic call (Species/Cell Type: Saccharomyces cerevisiae, Assay Type: Mitotic recombination or gene conversion, Assay Code: YEC+, Evaluation Type: Evaluation A (Pre-1980)) was “active; positive” and the mutagenic call (Species/Cell Type: Saccharomyces cerevisiae, Assay Type: Mitotic recombination or gene conversion, Assay Code: YEH+, Evaluation Type: Evaluation A (Pre-1980)) was “active; positive”. For the same molecule, the mutagenic call [1] was “active; positive”, the mutagenic call [2] was “active; positive” and the mutagenic call (Species/Cell Type: Salmonella typhimurium, Assay Type: Forward and reverse gene mutation, host-mediated assay, Assay Code: HMA+, Evaluation Type: Evaluation A (Pre-1980)) was “active; positive”. The mutagenic call [3] was “active; positive”, the mutagenic call (Species/Cell Type: Syrian hamster embryo (SHE) cells, Assay Type: Cell transformation, focus assay, Assay Code: CTF+, Evaluation Type: Evaluation A (Pre-1980)) was “active; positive” and the mutagenic call [4] was “active; positive”.

For `Cc1cc2nc3ccc(=[N+](C)C)cc-3sc2cc1N`, the mutagenic call (Species/Cell Type: Bacillus subtilis (H17 vs M45T), Assay Type: Rec-assay, spot test, DNA effects (bacterial DNA repair), Assay Code: REXT, Evaluation Type: Evaluation A (Pre-1980)) was “no conclusion” and the mutagenic call (Species/Cell Type: Saccharomyces cerevisiae, Assay Type: Mitotic recombination or gene conversion, Assay Code: YECT, Evaluation Type: Evaluation A (Pre-1980)) was “no conclusion”.

In the case of `COC(=O)/C=C(\C)OP(=O)(OC)OC`, the mutagenic call [5] is reported as “active; positive”, the mutagenic call (Species/Cell Type: Tradescantia species, Assay Type: Chromosome aberrations, Assay Code: TRC+, Evaluation Type: Evaluation A (Pre-1980)) is reported as “active; positive” and the mutagenic call [4] is reported as “active; positive”.

`CCCCCCCCCCCCCC(=O)N(C)N=O` was tested, and the mutagenic call [1] was “active; positive”.

`NC1CCCCC1` was tested, and the mutagenic call (Species/Cell Type: Drosophila melanogaster, Assay Type: Aneuploidy, whole sex chromosome loss, chromosome aberrations, Assay Code: DACT, Evaluation Type: Evaluation A (Pre-1980)) was “no conclusion”, the mutagenic call [6] was “inactive; negative” and the mutagenic call (Species/Cell Type: Drosophila melanogaster, Sex: Male, Assay Type: Heritable translocation test, chromosome aberrations, Assay Code: DHT-, Evaluation Type: Evaluation A (Pre-1980)) was “inactive; negative”. The mutagenic call [7] was “no conclusion”, the mutagenic call (Species/Cell Type: Human lymphocytes or leukocytes, Assay Type: Chromosome aberrations in vitro, Assay Code: CY7-, Evaluation Type: Evaluation A (Pre-1980)) was “inactive; negative” and the mutagenic call (Species/Cell Type: Mammalian germ cells, Sex: Male, Assay Type: Chromosome aberrations in vivo, Assay Code: CY9+, Evaluation Type: Evaluation A (Pre-1980)) was “active; positive”. For the same molecule, the mutagenic call (Species/Cell Type: Nonhuman bone marrow, Assay Type: Chromosome aberrations, in vivo, Assay Code: CY#-, Evaluation Type: Evaluation A (Pre-1980)) was “inactive; negative”, the mutagenic call (Species/Cell Type: Nonhuman, Assay Type: Chromosome aberrations in vitro, Assay Code: CY&+D, Dose Response: With dose response, Evaluation Type: Evaluation A (Pre-1980)) was “active; positive” and the call (Species/Cell Type: Nonhuman, Assay Code: CCGT, Evaluation Type: Evaluation A (Pre-1980)) was “no conclusion”. For the same molecule, the mutagenic call (Species/Cell Type: Rat, Sex: Male, Assay Type: Sperm morphology, Assay Code: SPA+, Evaluation Type: Evaluation A (Pre-1980)) was “active; positive”, the mutagenic call (Species/Cell Type: Rodents, Sex: Male, Assay Type: Dominant lethal test, Assay Code: DLT-, Evaluation Type: Evaluation A (Pre-1980)) was “inactive; negative” and the mutagenic call (Species/Cell Type: Rodents, Sex: Male, Assay Type: Dominant lethal test, Assay Code: DLTT, Evaluation Type: Evaluation A (Pre-1980)) was “no conclusion”. The mutagenic call (Species/Cell Type: Salmonella typhimurium, Serratia marcesens, Assay Type: Forward and reverse gene mutation, host-mediated assay, Assay Code: HM2T, Evaluation Type: Evaluation A (Pre-1980)) was “no conclusion” and the mutagenic call [3] was “active; positive”.

With `CCc1cc2c(c3ccc4ccccc4c13)CCC2=O` the mutagenic call (Species/Cell Type: Salmonella typhimurium (one or more of the five standard strains: TA98, TA100, TA1535, TA1537, and TA1538), Assay Type: Histidine reverse gene mutation, Ames assay, Assay Code: SAL+*, Activation: With metabolic activation, Evaluation Type: Evaluation A (Pre-1980)) was “active; positive”.

In the case of `C[C@]12C=CC(=O)C=C1CC[C@@H]1[C@@H]2[C@@H](O)C[C@@]2(C)[C@H]1CC[C@]2(O)C(=O)CO`, the mutagenic call (Species/Cell Type: Human lymphocytes, Assay Type: Sister-chromatid exchange (SCE) in vivo, Assay Code: SCY+, Evaluation Type: Evaluation B (Post-1980)) is reported as “active; positive” and the mutagenic call (Species/Cell Type: Human, Sex: Male, Assay Type: Sperm morphology, Assay Code: SPH+, Evaluation Type: Evaluation A (Pre-1980)) is reported as “active; positive”.

For `O=[N+]([O-])c1cccc2cn[nH]c12`, the mutagenic call [2] was “active; positive”.

`O=c1cccc2cc(O)c(O)c(O)c2c1O` was tested, and the mutagenic call (Species/Cell Type: Allium cepa, Assay Type: Chromosome aberrations, Assay Code: ALC-, Evaluation Type: Evaluation A (Pre-1980)) was “inactive; negative”.

In the case of `C/C=C(C)/C=C/C=C(C)/C=C/C1=C(C)CCCC1(C)C`, the mutagenic call [5] is reported as “active; positive”.

`CC1(C)C(C=C(Cl)Cl)C1C(=O)OC(C#N)c1cccc(Oc2ccccc2)c1` (configuration not stated) was tested, and the mutagenic call [8] was “inactive; negative”, the mutagenic call (Species/Cell Type: Mammalian polychromatic erythrocytes, Assay Type: Micronucleus test, chromosome aberrations, Assay Code: MNT+, Evaluation Type: Evaluation B (Post-1980)) was “active; positive” and the mutagenic call (Species/Cell Type: Saccharomyces cerevisiae, Assay Type: Mitotic recombination or gene conversion, Assay Code: YEH-, Evaluation Type: Evaluation A (Pre-1980)) was “inactive; negative”.

`O=C1c2c(O)ccc(O)c2C(=O)c2c(NCCc3ccccc3)ccc(NCCc3ccccc3)c21` was tested, and the mutagenic call (Species/Cell Type: Salmonella typhimurium (one or more of the five standard strains: TA98, TA100, TA1535, TA1537, and TA1538), Assay Type: Histidine reverse gene mutation, Ames assay, Assay Code: SAL+/-*, Activation: With metabolic activation, Evaluation Type: Evaluation A (Pre-1980)) was “inactive; positive without activation, negative with activation”.

For `CCCN(CCC)c1c([N+](=O)[O-])cc(C(F)(F)F)cc1[N+](=O)[O-]`, the mutagenic call (Species/Cell Type: Bacillus subtilis (H17 vs M45), Assay Type: Rec-assay, spot test, DNA effects (bacterial DNA repair), Assay Code: REWT, Evaluation Type: Evaluation A (Pre-1980)) was “no conclusion”, the mutagenic call [6] was “inactive; negative” and the mutagenic call (Species/Cell Type: Escherichia coli WP2 UVRA, Assay Type: Tryptophan reverse gene mutation, Assay Code: WPU-*, Activation: With metabolic activation, Evaluation Type: Evaluation A (Pre-1980)) was “inactive; negative”. The mutagenic call [7] was “no conclusion”, the mutagenic call [8] was “inactive; negative” and the mutagenic call (Species/Cell Type: Neurospora crassa, Assay Type: Aneuploidy, chromosome aberrations, Assay Code: NEN+, Evaluation Type: Evaluation A (Pre-1980)) was “active; positive”. The call (Species/Cell Type: Nonhuman, Assay Code: CCG+L, Evaluation Type: Evaluation A (Pre-1980)) was “active; positive”, the mutagenic call (Species/Cell Type: Nonhuman, Assay Type: Sister-chromatid exchange (SCE) in vitro, Assay Code: SC2+, Evaluation Type: Evaluation B (Post-1980)) was “active; positive” and the mutagenic call (Species/Cell Type: Saccharomyces cerevisiae, Assay Type: Mitotic recombination or gene conversion, Assay Code: YEH+/-*, Activation: With metabolic activation, Evaluation Type: Evaluation A (Pre-1980)) was “inactive; positive without activation, negative with activation”. The mutagenic call (Species/Cell Type: Salmonella typhimurium (one or more of the five standard strains: TA98, TA100, TA1535, TA1537, and TA1538), Assay Type: Histidine reverse gene mutation, Ames assay, Assay Code: SAL-, Evaluation Type: Evaluation A (Pre-1980)) was “inactive; negative” and the mutagenic call [4] was “active; positive”.
